In patent US20260001849A1, “NOVEL B0AT1 INHIBITOR” (MITSUBISHI TANABE PHARMA CORPORATION, priority 2023, published 2026):

target: T1, Human BOAT1 (Homo sapiens, UniProt Q695T7); experiment: hBOAT1 inhibitory test (phenylalanine uptake); format: cell-based; conditions: Human BOAT1 stable expression CHO cells; [3H]-L-phenylalanine uptake, phenylalanine 0.25 mM; radioactivity after 100 to 200 min; read-out: hB0AT1 IC50
T1 construct: expressed in transfected cells
T1 sequence (Q695T7 1-634): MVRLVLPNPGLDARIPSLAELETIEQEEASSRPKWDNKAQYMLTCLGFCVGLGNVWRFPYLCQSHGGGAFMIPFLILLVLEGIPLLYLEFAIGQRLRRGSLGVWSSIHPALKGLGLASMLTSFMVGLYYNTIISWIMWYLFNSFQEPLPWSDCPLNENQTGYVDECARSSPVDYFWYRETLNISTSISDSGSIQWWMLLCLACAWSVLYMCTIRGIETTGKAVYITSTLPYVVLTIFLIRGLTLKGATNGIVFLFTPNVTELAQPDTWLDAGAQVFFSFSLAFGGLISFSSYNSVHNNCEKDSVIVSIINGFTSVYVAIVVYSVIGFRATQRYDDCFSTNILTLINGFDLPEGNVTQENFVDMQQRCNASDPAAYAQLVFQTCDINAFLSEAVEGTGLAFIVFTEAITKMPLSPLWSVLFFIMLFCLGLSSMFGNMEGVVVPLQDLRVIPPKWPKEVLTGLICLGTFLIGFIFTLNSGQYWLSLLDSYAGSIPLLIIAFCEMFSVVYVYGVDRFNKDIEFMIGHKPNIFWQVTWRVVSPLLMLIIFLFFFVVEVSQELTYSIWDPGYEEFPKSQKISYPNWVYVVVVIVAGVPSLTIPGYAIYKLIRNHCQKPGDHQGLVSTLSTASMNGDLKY
Procedure: A test compound dissolved in dimethyl sulfoxide (DMSO) was added to a 96 well plate for solid phase radioactivity measurement containing a scintillator at the bottom of the well (final concentration of DMSO 0.5%). DMSO alone as a control and DMSO containing N-(4-bromophenyl)-3,5-dichloro-2-hydroxybenzamide (final concentration […]) for the measurement of BOAT1 non-specific uptake were similarly added at 0.5 μL per well. Human BOAT1 stable expression CHO cells suspended in a buffer (buffer containing 96 mM sodium chloride, 2 mM potassium chloride, 1.8 mM calcium chloride, 1 mM magnesium chloride, 0.01% bovine serum albumin, and 10 mM 2-[4-(2-hydroxyethyl)-1-piperazinyl]ethanesulfonic acid) were added by 90 μL to 75000 cells/well. After standing at ordinary temperature for 30 min or longer, the cells were subjected to a phenylalanine uptake experiment. A buffer containing L-phenylalanine and [3,4,5-3H]-L-phenylalanine was added by 10 μL per well (final concentration of phenylalanine 0.25 mM), and the radioactivity of the plate bottom surface at ordinary temperature was measured with a scintillation counter over time, and the radioactivity value after 100 to 200 min was analyzed.

| Structure (SMILES) | IC50 |
| --- | --- |
| O=C(/C=C/c1ccc(C(F)(F)F)cc1)NCC(=O)N1CCc2cc(N3CCC(C(=O)O)C3)ccc2C1 (centres unmarked) [I-160] | 156 nM |
| O=C(/C=C/c1ccc(C(F)(F)F)cc1F)NCC(=O)N1CCN(Cc2ccc(C(=O)O)cc2)CC1c1ccc(Cl)cc1 (centres unmarked) [I-251] | 366 nM |
| COC(=O)CNc1ccc2c(c1)CCN(C(=O)CNC(=O)/C=C/c1ccc(C(F)(F)F)cc1)C2 [I-11] | 81 nM |
| O=C(O)Cc1cnn2c1CN(C(=O)CNC(=O)/C=C/c1ccc(C(F)(F)F)cc1)CC2 [I-179] | 872 nM |
| CC(C)(C)OC(=O)C1CCN(c2ccc3c(c2)CCN(C(=O)CNC(=O)/C=C/c2ccc(C(F)(F)F)cc2)C3)C1 (centres unmarked) [I-26] | 332 nM |
| Cc1nn(CC(=O)O)c2c1CN(C(=O)CNC(=O)/C=C/c1ccc(C(F)(F)F)cc1)CC2 [I-219] | 256 nM |
| O=C(/C=C/c1ccc(C(F)(F)F)cc1)NCC(=O)N1CCc2cc(N3CCC(C(=O)O)CC3)ccc2C1 [I-161] | 259 nM |
| C[C@@H]1CN(C(=O)CNC(=O)/C=C/c2ccc(C(F)(F)F)cc2F)[C@@H](c2ccc(C3CC3)cc2)CN1CCC(=O)O [I-382, 3-[(2R,5S)-5-(4-cyclopropylphenyl)-4-[2-[[(E)-3-[2-fluoro-4-(trifluoromethyl)phenyl]prop-2-enoyl]amino]acetyl]-2-methylpiperazin-1-yl]propanoic acid] | 63 nM |
| O=C(O)CCc1cnn2c1CN(C(=O)CNC(=O)/C=C/c1ccc(C(F)(F)F)cc1)CC2 [I-193] | 459 nM |
| O=C(O)CCc1cccc2c1CCN2C(=O)CNC(=O)/C=C/c1ccc(C(F)(F)F)cc1 [I-246] | 44 nM |
| COC(=O)Cn1nc(C)c2c1CCN(C(=O)CNC(=O)/C=C/c1ccc(C(F)(F)F)cc1)C2 [I-12] | 89 nM |
| N#Cc1c(CC(=O)O)ccc2c1CCN(C(=O)CNC(=O)/C=C/c1ccc(S(F)(F)(F)(F)F)cc1)C2 [I-152] | 96 nM |
| O=C(O)CCc1nc2c(s1)CN(C(=O)CNC(=O)/C=C/c1ccc(C(F)(F)F)cc1)CC2 [I-200, 3-[5-[2-[[(E)-3-[4-(trifluoromethyl)phenyl]prop-2-enoyl]amino]acetyl]-6,7-dihydro-4H-[1,3]thiazolo[5,4-c]pyridin-2-yl]propanoic acid] | 192 nM |

Other lines, results leading:

| IC50 | Structure (SMILES) |
| --- | --- |
| 386 nM | CC(CC(=O)O)c1ccc2c(c1)CCN(C(=O)CNC(=O)/C=C/c1ccc(C(F)(F)F)cc1)C2 (centres unmarked) [I-164] |
| 579 nM | O=C(O)Cc1ccc2n(c1=O)CCN(C(=O)CNC(=O)/C=C/c1ccc(C(F)(F)F)cc1F)C2 [I-207] |
| 263 nM | CC(F)(F)c1ccc(/C=C/C(=O)NCC(=O)N2CCc3cc(CC(=O)O)ccc3C2)cc1 [I-211] |
| 48 nM | CNC(=O)Cc1ccc2c(n1)CCN(C(=O)CNC(=O)/C=C/c1ccc(C(F)(F)F)cc1)C2 [I-377] |
| 42 nM | COC(=O)Cc1cc(F)c2c(c1)CCN(C(=O)CNC(=O)/C=C/c1ccc(C(F)(F)F)cc1F)C2 [I-118] |
| 241 nM | O=C(O)Cc1ccc2c(c1)CN(C(=O)CNC(=O)/C=C/c1ccc(C(F)(F)F)cc1)C2 [I-142] |
| 54 nM | CNC(=O)Cc1cnn2c1CN(C(=O)CNC(=O)/C=C/c1ccc(C(F)(F)F)cc1)CC2 [I-374] |
| 138 nM | O=C(O)COc1cc(Br)c2c(c1)CCN(C(=O)CNC(=O)/C=C/c1ccc(C(F)(F)F)cc1)C2 [I-181] |
| 106 nM | O=C(O)Cc1cc2c(cn1)CN(C(=O)CNC(=O)/C=C/c1ccc(C(F)(F)F)cc1)CC2 [I-167] |
| 56 nM | N#Cc1c(CC(=O)O)ccc2c1CCN(C(=O)CNC(=O)/C=C/c1ccc(I)cc1F)C2 [I-203] |
| 100 nM | O=C(O)CCc1cc2c(s1)CN(C(=O)CNC(=O)/C=C/c1ccc(C(F)(F)F)cc1)CC2 [I-220] |
| 462 nM | O=C(O)CCCCc1ccc2c(c1)CCN(C(=O)CNC(=O)/C=C/c1ccc(C(F)(F)F)cc1)C2 [I-228] |
| 424 nM | O=C(O)Cc1ccc2c(c1)CCN(C(=O)CNC(=O)/C=C/c1ccc(C(F)(F)F)c(F)c1)C2 [I-189] |
| 232 nM | O=C(/C=C/c1ccc(C(F)(F)F)cc1F)NCC(=O)N1CCc2cc(Cc3nn[nH]n3)cc(Cl)c2C1 [I-378, (E)-N-[2-[8-chloro-6-(1,2,3λ4,4-tetraazacyclopenta-2,4-dien-5-ylmethyl)-3,4-dihydro-1H-isoquinolin-2-yl]-2-oxoethyl]-3-[2-fluoro-4-(trifluoromethyl)phenyl]prop-2-enamide] |
| 171 nM | COc1cc(CC(=O)O)cc2c1CN(C(=O)CNC(=O)/C=C/c1ccc(C(F)(F)F)cc1)CC2 [I-177] |
| 1670 nM | COC(=O)c1cccc(C2CCCN(C(=O)CNC(=O)/C=C/c3ccc(C(F)(F)F)cc3F)C2)c1 (centres unmarked) [I-61] |
| 202 nM | O=C(O)CNc1ccc2c(c1)CN(C(=O)CNC(=O)/C=C/c1ccc(C(F)(F)F)cc1)CC2 [I-217] |
| 397 nM | O=C(O)Cc1cccc2c1CCN(C(=O)CNC(=O)/C=C/c1ccc(C(F)(F)F)cc1)C2 [I-192] |
| 240 nM | O=C(O)CCCc1ccc2c(c1)CCN(C(=O)CNC(=O)/C=C/c1ccc(C(F)(F)F)cc1)C2 [I-170] |

same assay, conditions: Human BOAT1 stable expression CHO cells; phenylalanine uptake, phenylalanine 0.25 mM; read-out: hB0AT1 IC50

| Structure (SMILES) | IC50 |
| --- | --- |
| C[C@@H]1CN(C(=O)CNC(=O)/C=C/c2ccc(C(F)(F)F)cc2F)[C@@H](c2ccccc2)CN1CC#CC(=O)O [I-320] | 352 nM |
| O=C(O)CCCN1CCN(C(=O)CNC(=O)/C=C/c2ccc(C(F)(F)F)cc2F)C(C2CCCCC2)C1 (centres unmarked) [I-365] | 69 nM |
| C[C@@H]1CN(C(=O)CNC(=O)/C=C/c2ccc(C(F)(F)F)cc2F)[C@@H](c2cccs2)CN1CCCC(=O)O [I-357] | 107 nM |
| O=C(O)CCCN1CCN(C(=O)CNC(=O)C=Cc2ccc(C(F)(F)F)cc2F)C(c2nc(-c3ccccc3)no2)C1 (centres unmarked) [I-402] | 235 nM |
| CC(CCN1C[C@H](c2ccccc2)N(C(=O)CNC(=O)/C=C/c2ccc(C(F)(F)F)cc2F)C[C@H]1C)C(=O)O (some centres unmarked) [I-345] | 1780 nM |
| CN(C)C(=O)CCc1cnn2c1CN(C(=O)CNC(=O)/C=C/c1ccc(C(F)(F)F)cc1)CC2 [I-275] | 78 nM |
| O=C(O)CCCN1CCN(C(=O)CNC(=O)/C=C/c2ccc(C(F)(F)F)cc2F)C(c2noc3ccccc23)C1 (centres unmarked) [I-400] | 292 nM |
| O=C(O)CCCN1CCN(C(=O)CNC(=O)/C=C/c2ccc(C(F)(F)F)cc2F)C(c2cccc(C(F)(F)F)c2)C1 (centres unmarked) [I-262] | 125 nM |
| O=C(/C=C/c1ccc(C(F)(F)F)cc1F)NCC(=O)N1CCN(CC2CC(C(=O)O)C2)CC1c1ccc(Cl)cc1 (single isomer, unassigned) [I-296, 3-[[3-(4-chlorophenyl)-4-[2-[[(E)-3-[2-fluoro-4-(trifluoromethyl)phenyl]prop-2-enoyl]amino]acetyl]piperazin-1-yl]methyl]cyclobutane-1-carboxylic acid] | 747 nM |

Other lines, results leading:

| IC50 | Structure (SMILES) |
| --- | --- |
| 22 nM | NC(=O)Cc1ccc2c(c1)CCN(C(=O)CNC(=O)/C=C/c1ccc(C(F)(F)F)cc1)C2 [I-273, (E)-N-[2-[6-(2-amino-2-oxoethyl)-3,4-dihydro-1H-isoquinolin-2-yl]-2-oxoethyl]-3-[4-(trifluoromethyl)phenyl]prop-2-enamide] |
| 1110 nM | O=C(/C=C/c1ccc(C(F)(F)F)cc1F)NCC(=O)N1CCCC(N2CC[C@@H](C(=O)O)C2)C1 (some centres unmarked) [I-359] |
| 661 nM | CNC(=O)Cc1cc(CC(=O)O)cc2c1CN(C(=O)CNC(=O)/C=C/c1ccc(C(F)(F)F)cc1F)CC2 [I-336] |
| 638 nM | O=C(O)Cc1ccccc1C1=CCCN(C(=O)CNC(=O)/C=C/c2ccc(C(F)(F)F)cc2F)C1 [I-260] |
| 25 nM | CNC(=O)Cc1nc2c(s1)CN(C(=O)CNC(=O)/C=C/c1ccc(C(F)(F)F)cc1F)CC2 [I-284] |
| 21 nM | CN(C)C(=O)Cc1cc(Cl)c2c(c1)CCN(C(=O)CNC(=O)/C=C/c1ccc(C(F)(F)F)cc1F)C2 [I-279] |
| 1400 nM | O=C(O)C[C@@H]1CCN(C2CCCN(C(=O)CNC(=O)/C=C/c3ccc(C(F)(F)F)cc3F)C2)C1 (some centres unmarked) [I-362] |
| 7 nM | CONC(=O)Cc1cc(Cl)c2c(c1)CCN(C(=O)CNC(=O)/C=C/c1ccc(C(F)(F)F)cc1F)C2 [I-281] |
| 17 nM | NC(=O)Cc1cc(F)c2c(c1)CCN(C(=O)CNC(=O)/C=C/c1ccc(C(F)(F)F)cc1)C2 [I-276] |
| 30 nM | CNC(=O)Cc1ccc2c(c1)CCN(C(=O)CNC(=O)/C=C/c1ccc(C(F)(F)F)cc1)C2 [I-277] |
| 1330 nM | CN1CCN(C(=O)CNC(=O)/C=C/c2ccc(C(F)(F)F)cc2F)CC1c1cccc(C(=O)O)c1 (centres unmarked) [I-258] |
| 19 nM | O=C(/C=C/c1ccc(C(F)(F)F)cc1F)NCC(=O)N1CCc2cc(CC(=O)NCCO)cc(Cl)c2C1 [I-280] |
